Results taken from patent publication US9426989B2 (priority 2010, dated 2016).

What was measured:
Type in all cases: cell-based
[1] = tested on: Mammalian orthoreovirus, type 3 (strain Dearing, ATCC VR-824)
BK Polyoma virus = assay: Comparative data for inactivation with BPL: BK Polyoma virus; conditions: BPL 0.05%; 16 hours +2-8° C. (then 2 hours 37° C. for BPL hydrolysis)
[2] = tested on: Enteroviruses (Coxsackie virus, Echovirus); assay: Comparative data for inactivation with BPL: Enteroviruses; conditions: BPL 0.05%; 16 hours +2-8° C. (then 2 hours 37° C. for BPL hydrolysis)

SMILES	Reduction (of reovirus titre) [1] [log 10]	reovirus inactivation, in words [1]	LRV (BK Polyoma virus)	LRV [2]
COO [Inactivator 072, Methylhydroperoxide]	0.9	performed poorly	–	–
O=C1CCO1 [BPL, β-propiolactone]	–	–	2.1	4-5
